Values quoted from earlier work as cited in patent US5514648A, “Fungicidally active compounds” (priority 1990, dated 1996).

Legend:
Bacillus subtilis = details: against Bacillus subtilis; cited from earlier work
Escedchia coli = details: against Escedchia coli; cited from earlier work
Staphylococcus aureus = details: against Staphylococcus aureus; cited from earlier work
Penicillium digitalum = details: spore germination test with Penicillium digitalum; cited from earlier work

CC1CCCCCC(=O)c2c(O)cc(O)cc2CC(=O)O1 (stereo not shown) [curvularin, Curvularin]
anti-bacterial activity (Bacillus subtilis): Neither curvularin nor the crude filtrates from Curvularia showed | anti-bacterial activity (Escedchia coli): Neither curvularin nor the crude filtrates from Curvularia showed | anti-bacterial activity (Staphylococcus aureus): Neither curvularin nor the crude filtrates from Curvularia showed | anti-fungal activity (Penicillium digitalum): Neither curvularin nor the crude filtrates from Curvularia showed
